Legend:
Format in all cases: cell-based, human
293-HEK cell line [1] = test: Extracellular vesicle output quantified by Bradford solution
Description: The 293-HEK cell line was cultured in a 6-well plate at a rate of 2×10^5 cells/mL, and the next day, the cell line was treated with the solution of Example 1 and a peptide of any one of SEQ ID NOs: 1 to 21. […], the solution was removed, followed by centrifugation at an RCF of 12000, and the extracellular vesicles were quantified using the supernatant by Bradford solution.

293-HEK cell line [2] = test: Extracellular vesicle size and quantity by Nanoparticle Tracking Analysis (NTA); details: 50-fold diluted, solution of Example 1, peptide 20 μm, after 20 minutes
Description: After the 293-HEK cell line was cultured to 90% confluency (about 2×10^7 cells) in a 10-cm culture dish, the culture was removed, and the cells were treated with the eMTDΔ4 peptide (final concentration: 20 μm), which has been dissolved in 5 ml of the solution of Example 1. After 20 minutes, the solution was removed, followed by centrifugation at an RCF of 12000, and then the size and quantity of extracellular vesicles were measured using a Nanoparticle Tracking Analysis (NTA) system (Nanosight LM10, Malvern Instruments).

HeLa cell line = test: Production of extracellular vesicles, observed by optical microscope (bright field)
Description: After the HeLa cell line was cultured in a 6-well plate, the culture was removed, and then the HeLa cell line was treated with the solution in Example 1.
The control group was not treated with any peptide, and the experiment group was treated with eMTDΔ4 peptide of SEQ ID NO: 2 (final concentration: 20 μM). After 10 minutes, the generation of extracellular vesicles was observed by an optical microscope (bright field), and the observation results are shown in FIG. 1.
Extracellular vesicle production was carried out by the experimental method of Experimental Example 2-1 using the R(8):MTD peptide of SEQ ID NO: 4 and the solutions of Example 1 and Comparative Examples 1 to 18, and the results are shown in FIGS. 2A to 2S.
Extracellular vesicle production was carried out by the experimental method of Example 2-1 using the R(8):MTD peptide of SEQ ID NO: 4 and the solutions of Examples 1 to 3 on Table 3, and the results are shown in FIGS. 3A to 3C.

[3] = solution of Example 1, peptide 10 μM
[4] = solution of Example 1, peptide 20 μM
[5] = solution of Example 1, peptide 40 μM

Sequence	Amount of proteins contained in extracellular vesicles (293-HEK cell line [1]; [3])	Amount of proteins contained in extracellular vesicles (293-HEK cell line [1]; [4])	Amount of proteins contained in extracellular vesicles (293-HEK cell line [1]; [5])	Quantity of extracellular vesicles (293-HEK cell line [2])	generation of extracellular vesicles (HeLa cell line; solution of Example 1 (250 mM sucrose), peptide final concentration 20 μM, after 10 minutes)	generation of extracellular vesicles (HeLa cell line; solutions of Comparative Examples 1 to 18 (FIGS. 2B to 2S))	generation of extracellular vesicles (HeLa cell line; solutions of Examples 1 to 3, excess of glucose or sorbitol instead of sucrose)
AEYRKLLNLISKLF (TU128) [Noxa protein-derived derivative peptide, 14aa]	3.86 µg/µL	5.29 µg/µL	7.25 µg/µL				
AEYSRKLLNLISKLF (TU135) [Noxa protein-derived derivative peptide, 15aa]	1.81 µg/µL	4.41 µg/µL	6.54 µg/µL				
AFFLRKLLNLISKLF (TU151) [Noxa protein-derived derivative peptide, 15aa]	1.51 µg/µL	1.30 µg/µL	1.40 µg/µL				
AHFLRKLLNLISKLF (TU149) [Noxa protein-derived derivative peptide, 15aa]	1.71 µg/µL	2.00 µg/µL	2.57 µg/µL				
GLKSLRKLLNLISKLF (TU111) [Noxa protein-derived derivative peptide, 16aa]	4.17 µg/µL	4.98 µg/µL	6.44 µg/µL				
KLLNLISKLF [MTD]	0.80 µg/µL	1.17 µg/µL	2.87 µg/µL	8.01e+08 ± 1.75e+07 mL⁻¹			
KLLNLWSLLFGYTIK (TU103) [Noxa protein-derived derivative peptide, 15aa]	0.75 µg/µL	0.40 µg/µL	0.55 µg/µL				
KLLNLWSLLKGYTIK (TU124) [Noxa protein-derived derivative peptide, 15aa]	3.30 µg/µL	5.02 µg/µL	6.24 µg/µL				
KLNFAEFLRNLISKLF (TU166) [Noxa protein-derived derivative peptide, 16aa]	5.77 µg/µL	6.68 µg/µL	8.10 µg/µL				
KLNFRLGLRSLREKLF (TU168) [Noxa protein-derived derivative peptide, 16aa]	0.77 µg/µL	2.17 µg/µL	3.74 µg/µL				
KLNFRQKLARLLTKLF (TU171) [Noxa protein-derived derivative peptide, 16aa]	2.64 µg/µL	3.62 µg/µL	5.30 µg/µL				
KVSIFLKNLISKLF (TU156) [Noxa protein-derived derivative peptide, 14aa]	1.17 µg/µL	1.55 µg/µL	3.93 µg/µL				
KWYAKLLNLISKLF (TU114) [Noxa protein-derived derivative peptide, 14aa]				8.75e+08 ± 9.27e+07 mL⁻¹			
LNFKWYSLLNLISKLF (TU172) [Noxa protein-derived derivative peptide, 16aa]	0.83 µg/µL	0.44 µg/µL	0.59 µg/µL				
LRSLRDKLLNLISKLF (TU107) [Noxa protein-derived derivative peptide, 16aa]	5.58 µg/µL	6.69 µg/µL	7.45 µg/µL				
MEWWYLLKLLNLISKLF (TU104) [Noxa protein-derived derivative peptide, 17aa]	0.62 µg/µL	0.75 µg/µL	1.02 µg/µL				
QFAQYLRNLISKLF (TU155) [Noxa protein-derived derivative peptide, 14aa]	1.56 µg/µL	1.77 µg/µL	2.85 µg/µL				
RPARPARGGKLLNLISKLF (TU17) [Noxa protein-derived derivative peptide, 19aa]				7.95e+08 ± 7.15e+07 mL⁻¹			
RRRRRRRRKLLNLISKLF [R(8):MTD]					many extracellular vesicle particles were generated	extracellular vesicle particles were not generated	extracellular vesicles were well formed
YWLPLRKLLNLISKLF (TU146) [Noxa protein-derived derivative peptide, 16aa]	2.01 µg/µL	2.89 µg/µL	3.50 µg/µL				
